Data: PubChem BioAssay (NCI)
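Cells were grown in 96-well plates and exposed to each compound for 48 hours at five concentrations; endpoints were interpolated linearly between bracketing concentrations, or set to the highest concentration if not reached. Definition used: TGI = concentration required for complete inhibition of growth.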

What was measured:
Test in all cases: NCI-60 cell line screen, 48 h
UO-31 renal = test system: UO-31 renal
UACC-62 melanoma = test system: UACC-62 melanoma
SK-MEL-5 melanoma = test system: SK-MEL-5 melanoma
LOX IMVI melanoma = test system: LOX IMVI melanoma
SF-295 CNS = test system: SF-295 CNS
NCI-H23 lung = test system: NCI-H23 lung
SN12C renal = test system: SN12C renal
HT29 colon = test system: HT29 colon
A498 renal = test system: A498 renal
OVCAR-5 ovarian = test system: OVCAR-5 ovarian
ACHN renal = test system: ACHN renal
NCI-H226 lung = test system: NCI-H226 lung
T-47D breast = test system: T-47D breast
MDA-N = test system: MDA-N
HCT-116 colon = test system: HCT-116 colon
HOP-92 NSCLC = test system: HOP-92 NSCLC
SF-268 CNS = test system: SF-268 CNS
MDA-MB-231 breast = test system: MDA-MB-231 breast
MCF7 breast = test system: MCF7 breast
A549 NSCLC = test system: A549 NSCLC
SK-MEL-2 melanoma = test system: SK-MEL-2 melanoma
IGROV1 ovarian = test system: IGROV1 ovarian
TK-10 renal = test system: TK-10 renal
DU-145 prostate = test system: DU-145 prostate
786-0 renal = test system: 786-0 renal
HS 578T breast = test system: HS 578T breast
COLO 205 colon = test system: COLO 205 colon
RPMI-8226 leukemia = test system: RPMI-8226 leukemia
HOP-62 NSCLC = test system: HOP-62 NSCLC
K-562 leukemia = test system: K-562 leukemia
NCI/ADR-RES ovarian = test system: NCI/ADR-RES ovarian
SK-OV-3 ovarian = test system: SK-OV-3 ovarian
OVCAR-3 ovarian = test system: OVCAR-3 ovarian
NCI-H522 lung = test system: NCI-H522 lung
RXF 393 renal = test system: RXF 393 renal
CAKI-1 renal = test system: CAKI-1 renal
EKVX NSCLC = test system: EKVX NSCLC
OVCAR-8 ovarian = test system: OVCAR-8 ovarian
BT-549 breast = test system: BT-549 breast
MALME-3M melanoma = test system: MALME-3M melanoma
SF-539 CNS = test system: SF-539 CNS
M14 melanoma = test system: M14 melanoma
CCRF-CEM leukemia = test system: CCRF-CEM leukemia
SR leukemia = test system: SR leukemia
KM12 colon = test system: KM12 colon
UACC-257 melanoma = test system: UACC-257 melanoma
SNB-19 CNS = test system: SNB-19 CNS
MDA-MB-435 = test system: MDA-MB-435
HL-60(TB) leukemia = test system: HL-60(TB) leukemia
SNB-75 CNS = test system: SNB-75 CNS
SW-620 colon = test system: SW-620 colon
MOLT-4 leukemia = test system: MOLT-4 leukemia
HCT-15 colon = test system: HCT-15 colon
NCI-H460 lung = test system: NCI-H460 lung
PC-3 prostate = test system: PC-3 prostate
HCC-2998 colon = test system: HCC-2998 colon
SK-MEL-28 melanoma = test system: SK-MEL-28 melanoma
U251 CNS = test system: U251 CNS
OVCAR-4 ovarian = test system: OVCAR-4 ovarian

In the case of `Cc1ccc(NC=O)c(-c2c(N)[nH]c(=S)[nH]c2=O)c1`, the TGI (UO-31 renal) was > 100 µM, the TGI (UACC-62 melanoma) was > 100 µM and the TGI (SK-MEL-5 melanoma) was > 100 µM. The TGI (LOX IMVI melanoma) was > 100 µM, the TGI (SF-295 CNS) was > 100 µM and the TGI (NCI-H23 lung) was > 100 µM. For the same molecule, the TGI (SN12C renal) was > 100 µM, the TGI (HT29 colon) was > 100 µM and the TGI (A498 renal) was > 100 µM. The TGI (OVCAR-5 ovarian) was > 100 µM, the TGI (ACHN renal) was > 100 µM and the TGI (NCI-H226 lung) was > 100 µM. The TGI (T-47D breast) was > 100 µM, the TGI (MDA-N) was > 100 µM and the TGI (HCT-116 colon) was > 100 µM. For the same molecule, the TGI (HOP-92 NSCLC) was > 100 µM, the TGI (SF-268 CNS) was > 100 µM and the TGI (MDA-MB-231 breast) was > 100 µM. The TGI (MCF7 breast) was > 100 µM, the TGI (A549 NSCLC) was > 100 µM and the TGI (SK-MEL-2 melanoma) was > 100 µM. The TGI (IGROV1 ovarian) was > 100 µM, the TGI (TK-10 renal) was > 100 µM and the TGI (DU-145 prostate) was > 100 µM. The TGI (786-0 renal) was > 100 µM, the TGI (HS 578T breast) was > 100 µM and the TGI (COLO 205 colon) was > 100 µM. The TGI (RPMI-8226 leukemia) was > 100 µM, the TGI (HOP-62 NSCLC) was > 100 µM and the TGI (K-562 leukemia) was > 100 µM. For the same molecule, the TGI (NCI/ADR-RES ovarian) was > 100 µM, the TGI (SK-OV-3 ovarian) was 91.7 µM and the TGI (OVCAR-3 ovarian) was > 100 µM. The TGI (NCI-H522 lung) was > 100 µM, the TGI (RXF 393 renal) was > 100 µM and the TGI (CAKI-1 renal) was > 100 µM. The TGI (EKVX NSCLC) was > 100 µM, the TGI (OVCAR-8 ovarian) was > 100 µM and the TGI (BT-549 breast) was > 100 µM. For the same molecule, the TGI (MALME-3M melanoma) was > 100 µM, the TGI (SF-539 CNS) was > 100 µM and the TGI (M14 melanoma) was > 100 µM. The TGI (CCRF-CEM leukemia) was > 100 µM, the TGI (SR leukemia) was > 100 µM and the TGI (KM12 colon) was > 100 µM. For the same molecule, the TGI (UACC-257 melanoma) was > 100 µM, the TGI (SNB-19 CNS) was > 100 µM and the TGI (MDA-MB-435) was > 100 µM. For the same molecule, the TGI (HL-60(TB) leukemia) was > 100 µM, the TGI (SNB-75 CNS) was > 100 µM and the TGI (SW-620 colon) was > 100 µM. For the same molecule, the TGI (MOLT-4 leukemia) was > 100 µM and the TGI (HCT-15 colon) was > 100 µM.

With `O=C(O)c1ccc(CI)cc1` the TGI (UO-31 renal) was 32.7 µM, the TGI (UACC-62 melanoma) was 26.4 µM and the TGI (SK-MEL-5 melanoma) was 31.3 µM. For the same molecule, the TGI (SF-295 CNS) was 21.6 µM, the TGI (NCI-H23 lung) was 33.1 µM and the TGI (SN12C renal) was 34.7 µM. For the same molecule, the TGI (NCI-H460 lung) was 31.7 µM, the TGI (HT29 colon) was 37.9 µM and the TGI (A498 renal) was 35.3 µM. The TGI (OVCAR-5 ovarian) was 34.5 µM, the TGI (ACHN renal) was 30.1 µM and the TGI (NCI-H226 lung) was 44.1 µM. For the same molecule, the TGI (T-47D breast) was 48 µM, the TGI (MDA-N) was 34.4 µM and the TGI (HCT-116 colon) was 28.1 µM. For the same molecule, the TGI (HOP-92 NSCLC) was 31 µM, the TGI (SF-268 CNS) was 39.8 µM and the TGI (MDA-MB-231 breast) was 37.6 µM. For the same molecule, the TGI (MCF7 breast) was 31.1 µM, the TGI (A549 NSCLC) was 33.8 µM and the TGI (SK-MEL-2 melanoma) was 48.7 µM. For the same molecule, the TGI (PC-3 prostate) was 30.3 µM, the TGI (HCC-2998 colon) was 35.6 µM and the TGI (IGROV1 ovarian) was 38.2 µM. For the same molecule, the TGI (DU-145 prostate) was 35.9 µM, the TGI (786-0 renal) was 10.8 µM and the TGI (HS 578T breast) was > 100 µM. It also gave a TGI (COLO 205 colon) of 32.4 µM, a TGI (RPMI-8226 leukemia) of 45.8 µM and a TGI (HOP-62 NSCLC) of 36.1 µM. The TGI (K-562 leukemia) was 74.6 µM, the TGI (NCI/ADR-RES ovarian) was 34.8 µM and the TGI (SK-OV-3 ovarian) was 55 µM. It also gave a TGI (OVCAR-3 ovarian) of 23.3 µM, a TGI (NCI-H522 lung) of 11.8 µM and a TGI (RXF 393 renal) of 37.6 µM. The TGI (CAKI-1 renal) was 27.6 µM, the TGI (EKVX NSCLC) was 36.4 µM and the TGI (OVCAR-8 ovarian) was 37.3 µM. It also gave a TGI (SK-MEL-28 melanoma) of 31.9 µM, a TGI (MALME-3M melanoma) of 23.3 µM and a TGI (SF-539 CNS) of 32.1 µM. It also gave a TGI (M14 melanoma) of 41.3 µM, a TGI (CCRF-CEM leukemia) of 26.9 µM and a TGI (SR leukemia) of 59.1 µM. The TGI (UACC-257 melanoma) was 38.9 µM, the TGI (SNB-19 CNS) was 31.9 µM and the TGI (MDA-MB-435) was 54.9 µM. It also gave a TGI (U251 CNS) of 20.8 µM, a TGI (OVCAR-4 ovarian) of 27.4 µM and a TGI (HL-60(TB) leukemia) of 42.4 µM. For the same molecule, the TGI (SNB-75 CNS) was 49.9 µM, the TGI (SW-620 colon) was 33.7 µM and the TGI (MOLT-4 leukemia) was 40.7 µM. For the same molecule, the TGI (HCT-15 colon) was 39.8 µM.
